Reference: patent US10781177B2, “Pyridine compound and use thereof” (Nippon Soda Co., Ltd., priority 2016, dated 2020)

Columns and labels:
bean aphid = assay: Efficacy confirmation test on bean aphid; assay type: in vivo; conditions: 125 ppm sprayed on cowpea seedlings with bean aphid nymphs, 4th day after spraying; read-out: Mortality rate (converted)
Procedure: (§1) An emulsion was prepared in the same manner as in Test Example 1. The emulsion was diluted with water so that the compound of the present invention is to be 125 ppm to obtain a chemical solution.
Cowpea plants were raised in No. 3 pots and inoculated with bean aphid nymphs on primary leaves. The chemical solution was sprayed on the cowpea seedlings. The cowpea seedlings were placed in a thermostatic chamber at a temperature of 25° C. and a humidity of 60%. On the 4th day after spraying, the life and death of the aphid were determined and the mortality rate was calculated. The test was performed in duplicate.
(§2) The mortality rate was calculated in the same manner as in Test Example 3.

Tetranychus kanzawai = assay: Efficacy confirmation test on Tetranychus kanzawai; assay type: in vivo; conditions: 125 ppm sprayed on kidney bean seedlings with female imagoes, 10th day after spraying, read-out: Mortality rate (converted)
Procedure: as §1
Kidney bean plants were raised in 3 pots, and inoculated with 10 female imagoes of tetranychus kanzawai on primary leaves. The medicinal solution was sprayed on the kidney bean seedlings. The kidney bean seedlings were placed in a thermostatic chamber at a temperature of 25° C. and a humidity of 65%. On the 10th day after spraying, the survival and death of imagoes of tetranychus kanzawai were determined and the mortality rate was calculated. The test was performed in duplicate.
as §2

| SMILES | melting point [°C] | mortality at 125 ppm (bean aphid) [%] | mortality at 125 ppm (Tetranychus kanzawai) [%] |
| --- | --- | --- | --- |
| COC(=O)Oc1c(C)c(C)nc(C)c1Cc1ccc(Oc2ccc(OC(F)(F)F)cc2)cc1 [1-3, methyl (2,3,6-trimethyl-5-((4-(4-(trifluoromethoxy)phenoxy)phenyl)methyl)-4-pyridyl) carbonate] |  | 100 | 100 |
| COC(=O)Oc1c(C)c(C)nc(C(C)C)c1Cc1ccc(Oc2ccc(OC(F)(F)F)cc2)cc1 [1-9, (2-isopropyl-5,6-dimethyl-3-((4-(4-(trifluoromethoxy)phenoxy)phenyl)methyl)-4-pyridyl) methyl carbonate] |  | 100 | 100 |
| COC(=O)Oc1c(C)c(C)nc(C(C)C)c1Cc1ccc(-c2noc(C(F)(F)F)n2)cc1 [1-44, 2-isopropyl-5,6-dimethyl-3-(4-(5-(trifluoromethyl)-1,2,4-oxadiazole-3-yl)benzyl) pyridine-4-yl methyl carbonate] |  | 100 | 100 |
| Cc1nc(C)c(Cc2cc(-c3ccc(C(F)(F)F)cc3)on2)c(OCc2ccccc2)c1C [7-4] | 118 to 121 |  |  |
| CC(=O)Oc1c(C)c(C)nc(C)c1Cc1cc(-c2ccc(C(F)(F)F)cc2)on1 [7-6] | 170 to 173 |  |  |
| C=CCOc1c(C)c(C)nc(C)c1CN1C(=O)c2ccccc2C1=O [7-7] | 145 to 147 |  |  |
| COC(=O)Oc1c(C)c(C)nc(C(C)C)c1Cc1ccc(-c2ccc(OC(F)(F)F)cc2)s1 [7-9] |  | 100 |  |
| COC(=O)Oc1c(C)c(C)nc(C(C)C)c1Cc1ccc2ccccc2c1 [7-12] |  |  | 100 |
| Cc1nc2cc(Cc3c(C(C)C)nc(C)c(C)c3O)ccc2s1 [7-13] | 284 to 286 |  |  |
| COC(=O)Oc1c(C)c(C)nc(C(C)C)c1Cc1ccc2c(c1)CCC2c1ccc(F)cc1 (stereo not shown) [7-16] |  |  | 100 |
| COC(=O)Oc1c(C)c(C)nc(C(C)C)c1Cc1ccc2sc(C(F)(F)F)nc2c1 [7-20] |  |  | 100 |
| COC(=O)Oc1c(C)c(C)nc(C(C)C)c1Cc1ccc2ncccc2c1 [7-22] | 127 to 128 |  |  |
| COC(=O)Oc1c(C)c(C)nc(C(C)C)c1Cc1ccc2nc(C(F)(F)F)ccc2c1 [7-25] |  |  | 100 |
| COC(=O)Oc1c(C)c(C)nc(C(C)C)c1Cc1ccc2ccc(C(F)(F)F)nc2c1 [7-27] | 125 to 126 |  |  |
| COC(=O)Oc1c(C)c(C)nc(C(C)C)c1Cc1cccc2c1oc1ccccc12 [7-31] | 114 to 116 |  |  |
| COC(=O)Oc1c(C)c(C)nc(C(C)C)c1Cc1ccc2sc3ccccc3c2c1 [7-33] | 154 to 155 |  |  |
| COCCC(=O)NC1CCc2cc(Cc3c(C(C)C)nc(C)c(C)c3O)ccc21 (stereo not shown) [7-34] | 115 to 120 |  |  |
| COc1c(C)c(C)nc(C(C)C)c1Cc1ccc(C2CCC3(CC2)OCCO3)cc1 [7-42] | 107 to 108 |  |  |
| CCO/N=C(/NC(=O)C1CCC(C)CC1)c1ccc(Cc2c(C(C)C)nc(C)c(C)c2O)cc1 (stereo not shown) [7-43] | 101 to 115 |  |  |
| CCO/N=C(/NC(=O)C(F)(F)C(F)(F)F)c1ccc(Cc2c(C(C)C)nc(C)c(C)c2O)cc1 [7-45] | 210 to 212 |  |  |
| CCO/N=C(/NC(=O)C(F)(F)C(F)(F)F)c1ccc(Cc2c(C(C)C)nc(C)c(C)c2OC(=O)OC)cc1 [7-46] | 98 to 100 |  |  |
| COC(=O)Oc1c(C)c(C)nc(C(C)C)c1Cc1ccc(C(=O)NC(=O)C2CCC(C)CC2)cc1 (stereo not shown) [7-47] | 169 to 171 |  |  |
| COc1c(C)c(C)nc(C(C)C)c1Cc1ccc(NC(=O)CC(C)(C)C)cc1 [7-51] | 154 to 155 |  |  |
| Cc1nc(C(C)C)c(Cc2ccc(NC(=O)CC(C)(C)C)cc2)c(O)c1C [7-52] | 300 |  |  |
| COC(=O)Oc1c(C)c(C)cc(C(C)C)c1Cc1ccc(-c2ccc(C(C)=NOC3CCC(C(F)(F)F)CC3)cc2)cc1 (stereo not shown) [7-53] | 58 to 59 |  |  |

More lines, main results first:

| melting point [°C] | SMILES | mortality at 125 ppm (bean aphid) [%] | mortality at 125 ppm (Tetranychus kanzawai) [%] |
| --- | --- | --- | --- |
| 200 | Cc1nc(C)c(Cc2cc(-c3ccc(C(F)(F)F)cc3)on2)c(O)c1C [7-5] |  |  |
| 250 | Cc1nc(C(C)C)c(Cc2ccc(-c3ccc(OC(F)(F)F)cc3)s2)c(O)c1C [7-8] |  |  |
| 268 to 270 | Cc1nc(C(C)C)c(Cc2ccc3ccccc3c2)c(O)c1C [7-11] |  |  |
| 260 to 262 | Cc1nc(C(C)C)c(Cc2ccc3c(c2)CCC3c2ccc(F)cc2)c(O)c1C (stereo not shown) [7-15] |  |  |
| 296 to 298 | Cc1nc(C(C)C)c(Cc2cccc3c2CCC3c2ccc(F)cc2)c(O)c1C (stereo not shown) [7-17] |  |  |
| 273 to 274 | Cc1nc(C(C)C)c(Cc2ccc3sc(C(F)(F)F)nc3c2)c(O)c1C [7-19] |  |  |
| 254 to 256 | Cc1nc(C(C)C)c(Cc2ccc3ncccc3c2)c(O)c1C [7-21] |  |  |
| 268 to 269 | Cc1nc(C(C)C)c(Cc2ccc3cc(C(F)(F)F)ccc3c2)c(O)c1C [7-24] |  |  |
| 290 to 292 | Cc1nc(C(C)C)c(Cc2ccc3ccc(C(F)(F)F)nc3c2)c(O)c1C [7-26] |  |  |
| 221 to 224 | Cc1nc(C(C)C)c(Cc2ccc3c(c2)C(c2ccc(F)cc2)CC3)c(O)c1C (stereo not shown) [7-28] |  |  |
| 300 | Cc1nc(C(C)C)c(Cc2cccc3c2oc2ccccc23)c(O)c1C [7-30] |  |  |
| 300 | Cc1nc(C(C)C)c(Cc2ccc3sc4ccccc4c3c2)c(O)c1C [7-32] |  |  |
